In the CheMixHub ionic liquid set:

Assay: xn = mol fraction of the nth substance listed

CN(C)C=O + CCCC[n+]1ccn(C)c1.F[P-](F)(F)(F)(F)F
Conditions	viscosity [mPa·s]
303.15 K, 101 kPa, x1 = 1	0.82

CCCC[n+]1ccn(C)c1.O=S(=O)([N-]S(=O)(=O)C(F)(F)F)C(F)(F)F + CCCC[n+]1ccn(C)c1.N#C[C-](C#N)C#N
100 kPa, x1 = 1
Conditions	viscosity [mPa·s]
283.15 K	106.8
288.15 K	82.2
293.15 K	64.5
298.15 K	51.6
303.15 K	41.9
308.15 K	34.6
313.15 K	28.9
318.15 K	24.5
323.15 K	20.9
328.15 K	18.05
333.15 K	15.72
338.15 K	13.8
343.15 K	12.2
348.15 K	10.86
353.15 K	9.72
358.15 K	8.75
363.15 K	7.93

CCCCCCO + CCCC[n+]1ccn(C)c1.N#C[S-]
101 kPa, x1 = 1
Conditions	viscosity [mPa·s]
308.15 K	3.33
338.15 K	1.57

CN1CCCC1=O + CCCC[n+]1ccn(C)c1.N#C[S-]
101 kPa, x2 = 0
Conditions	viscosity [mPa·s]
288.15 K	2.133
298.15 K	1.791
308.15 K	1.549
318.15 K	1.285

CCCCCCO + CCCC[n+]1ccn(C)c1.O=S(=O)([N-]S(=O)(=O)C(F)(F)F)C(F)(F)F
298 K, 100 kPa
Conditions	electrical conductivity [S/m]	viscosity [mPa·s]
x2 = 0	–	4.502
x2 = 0.6	0.5605	–
x2 = 0.7	0.491	26.59
x2 = 0.8	0.4635	–
x2 = 0.8006	–	32.43
x2 = 0.899	–	40.3
x2 = 0.9	0.427	–

CCCC[n+]1ccn(C)c1.F[P-](F)(F)(F)(F)F + CCCC[n+]1ccn(C)c1.O=S(=O)([N-]S(=O)(=O)C(F)(F)F)C(F)(F)F
Conditions	viscosity [mPa·s]
313.15 K, 100 kPa, x1 = 0.5	49.8

CCOC(C)=O + CCCC[n+]1ccn(C)c1.O=S(=O)([N-]S(=O)(=O)C(F)(F)F)C(F)(F)F
298.15 K, 101 kPa
Conditions	viscosity [mPa·s]
x1 = 0.092	40
x1 = 0.2303	26.5

O=C1CCCCCO1 + CCCC[n+]1ccn(C)c1.O=S(=O)([N-]S(=O)(=O)C(F)(F)F)C(F)(F)F
electrical conductivity [S/m], 100 kPa, frequency 0.01 MHz
Conditions	293.15 K	298.15 K	303.15 K	308.15 K	313.15 K	318.15 K	323.15 K
x2 = 0.05	0.137	0.15	0.162	0.175	0.188	0.201	0.209
x2 = 0.1002	0.269	0.294	0.319	0.338	0.364	0.393	0.421
x2 = 0.1505	0.378	0.414	0.454	0.485	0.521	0.565	0.605
x2 = 0.1985	0.504	0.548	0.598	0.649	0.706	0.772	0.847
x2 = 0.3001	0.589	0.647	0.715	0.779	0.855	0.943	1.03
x2 = 0.3987	0.567	0.64	0.721	0.803	0.894	0.983	1.08
x2 = 0.4903	0.526	0.594	0.674	0.766	0.856	0.955	1.05
x2 = 0.6309	0.451	0.523	0.607	0.688	0.774	0.872	0.969
x2 = 0.6988	0.418	0.489	0.564	0.645	0.73	0.829	0.928
x2 = 0.8042	0.374	0.441	0.515	0.598	0.689	0.783	0.885
x2 = 0.883	0.356	0.417	0.489	0.573	0.665	0.759	0.862

CCCC[n+]1ccn(C)c1.F[P-](F)(F)(F)(F)F + CCCC[n+]1ccn(C)c1.O=S(=O)([O-])C(F)(F)F
Conditions	viscosity [mPa·s]
318.15 K, 100 kPa, x1 = 1	87.7

CCOC(C)=O + CCCC[n+]1ccn(C)c1.O=S(=O)([O-])C(F)(F)F
Conditions	viscosity [mPa·s]
298.15 K, 100 kPa, x2 = 0	0.42

CCCCCCO + CCCC[n+]1ccn(C)c1.O=[N+]([O-])[O-]
100 kPa, x2 = 0
Conditions	viscosity [mPa·s]
293.15 K	5.37
303.15 K	3.94
313.15 K	2.95
323.15 K	2.26

CC#N + CCCC[n+]1ccn(C)c1.[Cl-]
Conditions	viscosity [mPa·s]
308.15 K, 101 kPa, x1 = 1	0.31

CN(C)C=O + CCCC[n+]1ccn(C)c1.[Cl-]
Conditions	viscosity [mPa·s]
288.15 K, 101 kPa, x1 = 1	0.94

CCCC[n+]1ccn(C)c1.O=S(=O)([N-]S(=O)(=O)C(F)(F)F)C(F)(F)F + CCCO
298 K, 100 kPa
Conditions	electrical conductivity [S/m]	viscosity [mPa·s]
x1 = 0.02	0.137	–
x1 = 0.05	–	2.742
x1 = 0.06	0.348	–
x1 = 0.07	0.3949	–
x1 = 0.1	0.5104	3.685
x1 = 0.1996	–	5.689
x1 = 0.2	0.7444	–
x1 = 0.3	0.8144	–
x1 = 0.3005	–	8.179
x1 = 0.3996	–	11.32
x1 = 0.4	0.804	–
x1 = 0.4995	–	15.01
x1 = 0.5	0.7509	–
x1 = 0.5478	–	17.08
x1 = 0.6	0.686	–
x1 = 0.6957	–	24.54
x1 = 0.7	0.6239	–
x1 = 0.8	0.5324	–
x1 = 0.8024	–	32.15
x1 = 0.9	0.461	–
x1 = 0.9018	–	40.15
x1 = 1	–	49.7

CC#N + CCC[N+]1(C)CCCC1.O=S(=O)([N-]S(=O)(=O)C(F)(F)F)C(F)(F)F
101 kPa, x2 = 0
Conditions	viscosity [mPa·s]
278.15 K	0.411
288.15 K	0.38
298.15 K	0.346
308.15 K	0.311
318.15 K	0.279
328.15 K	0.248
